In brackets after ≈: the same amount, converted by molar mass.
Experiments:
[1] = Selectivity of ACCu2 for copper(II) ion against competing metal ions; settings: ACCu2 3 μM; Na+, K+, Ca2+, Mg2+ 1 mM; transition metal ions 500 μM; then 200 μM Cu2+; EtOH/HEPES (9/1, pH 7.0)
Method: The black bars show the result obtained in the presence of alkali metal and alkaline earth metal ions Na^+, K^+, Ca^2+ and Mg^2+ (1 mM) and transition metal ions Mn^2+, Fe^2+, Co^2+, Ni^2+, Zn^2+, Pd^2+, Cd^2+ and […] in EtOH/HEPES (9/1 v/v, pH 7.0), and the white bars show the result obtained after further addition of 200 μM Cu^2+.

HeLa cells [2] = test: Photostability in labeled HeLa cells; format: cell-based, human; parameters: dose or concentration left out as unconfirmed; settings: ACCu2-labeled HeLa cells, fs-pulses for 60 minutes
Method: The photostability of ACCu2 was determined by monitoring the change in TP excited fluorescence (TPEF) intensity from ACCu2 ([…])-labeled HeLa cells. […] This confirms that ACCu2 according to the present disclosure has high photostability and can measure the copper(II) ion concentration in living cells with minimum interference.

HeLa cells [3] = test: Two-photon microscopy of ACCu2-labeled HeLa cells, copper(II) ion estimation; format: cell-based, human; settings: for free copper(II) ion concentration: from Ired/Iblue ratio and titration curve
Excerpt: The two curves were similar to the TPEF spectra of HeLa cells labeled with FL and IR. And, the OP-excited fluorescence (OPEF) spectra of FL and IR measured in EtOH/HEPES (9/1 v/v, pH=7.0) (see Table 1 and FIG. 1) confirmed that this solvent is a good model of the intracellular environment.
In order to investigate the utility of ACCu2 in living cells, TPM images of ACCu2-labeled HeLa cells and tissues were obtained using spectral confocal and multiphoton microscopes (Leica TCS SP2) with ×100 (NA=1.30 OIL) and ×40 (NA=0.75 DRY) objective lenses.
The TPM images were obtained with the DM IRE2 microscope (Leica) by exciting the probes with a mode-locked titanium-sapphire laser source (Coherent Chameleon, 90 MHz, 200 fs) set at a wavelength of 780 nm and an output power of 1305 mW. To obtain images at 400-650 nm, internal PMTs were used to collect signals in 8-bit unsigned 512×512 pixels at a scan rate of 400 Hz.
HeLa human cervical carcinoma cells were acquired from the ATCC (Manassas, Va., USA). The cells were cultured in DMEM (WelGene, Inc., Seoul, Korea) supplemented with heat-inactivated 10% FBS (WelGene), penicillin (100 units/mL) and streptomycin ([…]), All the cell lines were maintained in a humidified atmosphere of 5% CO2 and 95% air at 37° C. Two days before imaging, the cells were moved and plated onto glass-bottomed dishes (MatTek), For labeling, the growth medium was removed and replaced with FBS-free DMEM. The cells were incubated with 3 μM ACCu2 for 20 minutes at 37° C., washed 3 times with FBS-free DMEM and imaged.
Ratiometric images were constructed from the TPEF intensities collected in the two channels (FIG. 9(a)-(c)). The Ired/Iblue ratio for the ACCu2-labeled HeLa cells was measured as 9.9±0.8 (FIG. 9(d)). The ratio decreased to 6.5 upon addition of copper(II) ion (200 μM) and pyrrolidine dithiocarbamate (PDTC, 100 μM) due to accumulation of copper(II) ion inside the cells, and increased to 9.8 upon treatment with ethylenediaminetetraacetic acid (EDTA, 100 μM), a […] metal on chelator that effectively removes copper(II) ion.
Since Iblue remains constant, ACCu2 according to the present disclosure can measure the Ired/Iblue ratio more accurately than the existing probe which requires the measurements of the changes in both Ired and Iblue. The free copper(II) ion concentration was calculated as 0.0±0.7 μM (FIG. 9(a)), 15±2 μM (FIG. 9(b)) and 0.0±1.9 μM (FIG. 9(c)) from the Ired/Iblue ratio and the titration curve shown in FIG. 5(b).

[4] = Fluorescence titration with copper(II) ion (one-photon and two-photon); format: binding
Method: Referring to FIG. 3(b), when small increments of copper(II) ion were added to ACCu2 in EtOH/HEPES (9/1 viv, pH=7.0), the TPEF intensity at the channel 2 (Ired) decreased gradually without any appreciable change at the channel 1 (Iblue).
The dissociation constant (Kd) can be calculated using Equation (2): […]
wherein I is the fluorescence intensity, Ifinal is the fluorescence intensity for the CU^2+-ACCu2 complex and Iinitial is the fluorescence intensity for ACCu2.
The dissociation constants (Kd^OP and Kd^TP) of ACCu2 for the OP and TP processes can be calculated from the fluorescence titration curves shown in FIG. 3(b). […] These indicate 1:1 complexation between the probe and the cation.
Referring to FIG. 5(a), the fluorescence intensities of ACCu2 according to the present disclosure measured by the OP (one-photon) and TP (two-photon) processes decreased by 10-fold in the presence of 200 μM of copper(II) ion. […] This means that quantitative measurement of copper(II) ion is possible in this concentration range. Moreover, the Ired/Iblue ratios determined in the two-photon mode were well fitted by the titration curve obtained in the one-photon mode.

[5] = Solubility in HEPES buffer by fluorescence method; format: physicochemical; settings: aqueous buffer; HEPES buffer ([HEPES]=20 mM, pH 7.0)
Method: (hereinafter, ‘ACCu2’), a compound of [Chemical Formula 12] (hereinafter, ‘FL’) and a compound of [Chemical Formula 13] (hereinafter, ‘IR’) in 1,4-dioxane, DMF, ethanol, EtOH/HEPES (9:1) and HEPES buffer ([HEPES]=20 mM, pH 7.0). Excitation wavelength was 420 nm. The solubility of ACCu2 in HEPES buffer ([HEPES]=20 mM, pH 7.0) as determined by the fluorescence method described in the literature (Kim, H. M.; Choo, H. J.; Jung, S. Y.; Ko, Y. G.; Park, W. H.; Jeon, S. J.; Kim, C. H.; Joo, T. H.; Cho, B. R. Chem Bio Chem 2007, 8, 553) was 8.0 μM, which was sufficient to stain cells.

[6] = pH dependence of Ired/Iblue ratio; format: physicochemical; settings: 3 μM ACCu2, 200 μM copper(II) ion, excitation 365 nm
Excerpt: The excitation wavelength was 365 nm. […] The increase in the Ired/Iblue ratio at pH<6 can be attributed to the protonation of the nitrogen atom in the pyridine moiety as shown in [Chemical Formula 19]. On the other hand, the increase in the Ired/Iblue ratio at pH>7.0 can be attributed to the decreased copper(II) ion concentration due to the formation of Cu(OH)2. This outcome is different from that reported for the existing one-photon probe.

[7] = ACCu2-labeled HeLa cells, 750 nm TP excitation, scanning lambda mode

- photostability: TPEF intensity after continuous radiation (HeLa cells [2]): remained nearly the same
- TPEF emission maximum, first Gaussian function (solid curve) (HeLa cells [3]; [7]): 470 nm
- TPEF emission maximum, second Gaussian function (dotted curve) (HeLa cells [3]; [7]): 582 nm
- solubility [5]: 8 µM (≈ 6.96 µg/mL)
- pH at which Ired/Iblue ratio shows a minimum [6]: 6-7
SMILES: COCCOCCOCCOc1ccc2c(ccc3cc(C(=O)N4CCN(C(=O)c5ccc(CNC(=O)c6cc7cc8ccc(N(C)C)cc8cc7oc6=O)nc5)CC4)c(=O)oc32)c1 [ACCu2]
- selectivity for Cu2+ in the presence of competing metal ions [1]: uninterrupted in the presence of the alkali metal, alkaline earth metal or transition metal ions
- Ired/Iblue ratio (HeLa cells [3]; ACCu2-labeled HeLa cells, before addition of copper(II) ion): 9.9±0.8
- free copper(II) ion concentration (HeLa cells [3]; HeLa cells, FIG. 9(a)): 0.0 ± 0.7 µM
- free copper(II) ion concentration (HeLa cells [3]; HeLa cells, FIG. 9(b)): 15 ± 2 µM
- free copper(II) ion concentration (HeLa cells [3]; HeLa cells, FIG. 9(c)): 0.0 ± 1.9 µM
- Ired/Iblue ratio (HeLa cells [3]; HeLa cells, after copper(II) ion (200 μM) and PDTC (100 μM)): 6.5
- Ired/Iblue ratio (HeLa cells [3]; HeLa cells, after further treatment with EDTA (100 μM)): 9.8
- detection limit for copper ion by TPM [4]: 0.84 µM
- decrease of fluorescence intensity ([4]; OP and TP processes, in the presence of 200 μM copper(II) ion): 10 fold
- copper(II) ion concentration range in which Ired/Iblue plot is linear ([4]; titration curve FIG. 5(b)): 0 to 0.25 µM
